Test results from patent US12133486B2, “Methods of propagation of arbuscular mycorrhizal fungi (AMF) and uses thereof” (Terra Microbes, LLC, priority 2021, dated 2024).

Columns and labels:
[1] = test system: AM fungi infection of yellow sweet clover (Melilotus officinalis) roots; assay: Pot study: AM infection level of yellow sweet clover roots; type: in vivo; conditions: YBSC plants; 80 ppm treatment P; 66 days; infected 1.1 mm root segments per 80 examined
Text: (§1) This Example is an un-replicated study to examine whether PO3^−3 (phosphite) impacts spore production and infection rate of AM fungi. The fungi were a mixed inoculum source from the University of West Virginia (UWV). UWV holds and maintains the International Culture Collection of (Vesicular) Arbuscular Mycorrhizal Fungi (INVAM). The plant used was yellow blossom sweet clover (Melilotus officinalis). All pots were inoculated, but only half were planted. Each Experimental unit was a 20 cm pot. Substrate for the units were a soil, sand, and inoculum mixture.
(§2) The present example was designed as a pot experiment where each pot was a treatment, the treatments being untreated controls, units treated with phosphate, and units treated with phosphite. All pots were a mixture of steamed ML soil, sand, and inoculum. Control units (pots) received no other treatment. Phosphate pots were treated with K2HPO4. Phosphite pots were treated with an equivalent molarity (concentration) of P as K2HPO3.
(§3) Half of the pots (a control, phosphate, and phosphite treatments) were planted with yellow sweet clover seed. The other half of the pots (also a control, phosphate, and phosphite treatment) were not planted with any plants.
Phosphate and phosphite were added to the soil materials such that the phosphorus in each would constitute 80 mg per kg of soil (Table 6). […]

[2] = test system: AM fungi (mixed INVAM inoculum); assay: Pot study: AM fungal spore production in steamed ML soil/sand with INVAM inoculum, planted or unplanted; type: in vivo; conditions: for AM Fungal Spores per 100 g soil: 80 ppm treatment P, end of study at 66 days, start 408 spores per 100 g; for increase in spore population from the start of the study: planted with yellow sweet clover; for increase in spore population from the start of the study / increase in spore population at 66 days over the levels at time 0: 66 days vs 408 spores per 100 g at time 0
Text: as §1
A known AM fungal inoculum was obtained from The International Culture Collection of (Vesicular) Arbuscular Mycorrhizae (invam.wvu.edu, Director Matt Kasson) maintained at the University of West Virginia in Morgantown, WV, US. A mixed culture of four AM fungal species was ordered. The mixture contained 250 ml of soil inoculum of each species. The total weight the entire mixed sample was 1345 grams and thus a bulk density of the sample of 1.345 g/ml. The material received contained the following species: Claroideoglomus etunicatum., Accession number AZ 201C (initially described by Becker W. N. and Gerdemann J. W., Mycotaxon, 6:29, 1977, as Glomus etunicatum.), spores were orange to red-brown, globose, subglobose; 60-160 μm diameter; mean 129 μm (n=120); Rhizophagus clarus, Accession number AZ 151D (initially described by Schenck, N. Mycologia, 71:182, 1979, as Glomus clarum.), spores are from white to yellow brown with many pale yellow to pale yellow brown, 100 to 260 μm diameter, mean 182 μm (n=120); Rhizophagus intraradices, Accession number AZ 123 (initially described by Schenck, N. Mycologia, 74:78, 1982, as Glomus intraradices), spores were white, pale cream, to yellow, brown, sometimes with a green hint, globose, subglobose, irregular. 40 to 140 μm diameter, mean 93.3 (n=170); and Septoglomus deserticola, Accession number CA 113 (initially described by Trappe J. Bluss and Menge J., 1984, Mycotaxon, 20:123, 1984, as Glomus deserticola), spores are orange-brown to dark red brown, most are reddish brown, globose to subglobose, sometimes irregular, 60 to 140 μm diameter.
as §2, §3
Phosphate and phosphite were added to the soil materials such that the phosphorus in each would constitute 80 mg per kg of soil (Table 6). This is more than was added to the field experimental plots described in Example 3. However, the results of that experiment (Example 4) did show a response of the AM fungi to phosphite. In Example 4, phosphorous either as phosphate or phosphite, was added at 61.53 ppm. In Example 4, there was no apparent inhibition of infection or spore production by addition of phosphorus. The level of P was raised to 80 mg per kg in this example to accentuate the impact of added P on the AM fungi. Each pot described in Table 6 contained 3.022.5 g of soil material (soil plus sand and inoculum).
The various treatment substrates, i.e., soil, sand, and inoculum, were mixed in batches. The control batch was established and mixed for the control treatments. Likewise, the phosphate and phosphite batches were mixed, respectively, for all phosphate and phosphite treatments. The treatments salts (K2HPO4 and K2HPO3) were added as 400 ml aqueous solution (chemical in distilled water to 400 ml). […]

[3] = YBSC (yellow sweet clover) plants

SMILES | AM Infection level, % [1] [%] | AM Fungal Spores per 100 g soil [2, 3] | AM Fungal Spores per 100 g soil ([2]; no plants) | increase in spore population from the start of the study [2] | mature brownish reddish spores ([2]; planted, 66 days) | small, immature spores ([2]; planted, 66 days) | mature brownish reddish spores ([2]; unplanted, 66 days) | small, immature spores ([2]; unplanted, 66 days) | increase in spore population at 66 days over the levels at time 0 ([2]; unplanted) | light colored to white spores ([2]; unplanted, 66 days)
O=P([O-])([O-])O.[K+].[K+] [PO4, dipotassium phosphate] | 47.5 | 7,146 per 100 g soil | 5,220 per 100 g soil | 1,751% | 2,827 per 100 g soil | 3,604 per 100 g soil | 2,237 per 100 g soil | 2,548 per 100 g soil | 1,279% | 
OP(O)O [PO3, dipotassium phosphite] | 35 | 4,598 per 100 g soil | 7,301 per 100 g soil | 1,127% | 3,480 per 100 g soil | 217 per 100 g soil | 4,287 per 100 g soil | 1,585 per 100 g soil | 1,789% | 1,429 spores per 100 g soil
